From patent US20240308973A1, “PHOSPHODIESTERASE 3 (PDE3) INHIBITORS” (Zoetis Services LLC, priority 2023, published 2024)

target: dog PDE3A recombinant enzyme (Canis lupus familiaris, UniProt A0A8I3NYE0); assay: cPDE3A assay (fluorescent polarization); assay type: biochemical; settings: canine PDE3A, read-out: cPDE3 Inhibition (IC50)
Protocol: cPDE3A Assay (Fluorescent Polarization)
The canine PDE3A assay kit was purchased from BPS Bioscience (San Diego, CA) which included dog PDE3A recombinant enzyme, FAM-cyclic-3′,5′-AMP (20 μM), PDE3 assay buffer, binding agent, binding agent diluent and microtiter 96-well plates. Compounds were initially dissolved in DMSO. The stock concentration was subsequently diluted in cPDE assay buffer (10× stock) and serially diluted to give a concentration response curve starting at 10 μM (≥7 total concentrations). Following the serial dilution, compound solution (0.1% final DMSO) was transferred to an assay plate (96-well) where the remaining canine PDE3A assay reagents were dispensed according to the BPS Bioscience® protocol (catalog #79735) procedure using a final concentration of 5 pg/μL of enzyme. Each compound was evaluated for the inhibition of the canine PDE3A enzyme activity using the measurement of fluorescent polarization changes. The 50% inhibition concentration (IC50) nM was calculated and reported.

dog PDE3A recombinant enzyme, sequence (A0A8I3NYE0 1-1135): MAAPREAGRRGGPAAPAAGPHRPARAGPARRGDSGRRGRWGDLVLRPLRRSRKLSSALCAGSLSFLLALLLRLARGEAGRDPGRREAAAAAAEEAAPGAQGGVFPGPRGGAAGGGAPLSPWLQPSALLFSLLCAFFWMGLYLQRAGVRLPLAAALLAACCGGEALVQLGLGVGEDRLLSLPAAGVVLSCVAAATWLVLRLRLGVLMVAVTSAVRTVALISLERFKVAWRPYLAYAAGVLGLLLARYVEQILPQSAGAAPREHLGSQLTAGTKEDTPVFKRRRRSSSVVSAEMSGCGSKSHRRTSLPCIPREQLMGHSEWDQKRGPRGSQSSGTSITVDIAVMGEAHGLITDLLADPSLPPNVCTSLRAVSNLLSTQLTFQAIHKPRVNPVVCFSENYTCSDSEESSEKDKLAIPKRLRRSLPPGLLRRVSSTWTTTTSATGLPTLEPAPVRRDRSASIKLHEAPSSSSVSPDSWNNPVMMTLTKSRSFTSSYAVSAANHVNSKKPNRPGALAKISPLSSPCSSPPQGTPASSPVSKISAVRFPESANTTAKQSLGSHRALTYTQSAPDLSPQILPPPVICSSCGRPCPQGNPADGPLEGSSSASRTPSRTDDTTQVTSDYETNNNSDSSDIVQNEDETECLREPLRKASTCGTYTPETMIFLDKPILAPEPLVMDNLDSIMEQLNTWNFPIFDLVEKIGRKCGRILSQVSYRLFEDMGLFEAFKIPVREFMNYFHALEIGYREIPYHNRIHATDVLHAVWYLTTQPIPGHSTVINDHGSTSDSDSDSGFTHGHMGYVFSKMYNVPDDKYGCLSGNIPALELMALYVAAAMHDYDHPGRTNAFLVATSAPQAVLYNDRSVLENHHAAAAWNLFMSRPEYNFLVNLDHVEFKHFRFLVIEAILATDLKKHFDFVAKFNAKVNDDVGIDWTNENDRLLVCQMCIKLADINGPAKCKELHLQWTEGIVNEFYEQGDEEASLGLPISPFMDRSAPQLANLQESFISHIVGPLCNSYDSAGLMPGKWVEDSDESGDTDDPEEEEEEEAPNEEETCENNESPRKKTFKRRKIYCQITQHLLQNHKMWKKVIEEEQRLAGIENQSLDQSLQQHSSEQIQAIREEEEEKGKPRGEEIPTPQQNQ

SMILES | IC50
O=C1Cc2cc(-c3cc(Cl)c4[nH]c(=O)oc4c3)cnc2N1 [Example #84, 4-chloro-6-(2-oxo-2,3-dihydro-1H-pyrrolo[2,3-b]pyridin-5-yl)benzo[d]oxazol-2 (3H)-one] | 112 nM
CC1CC(=O)NN=C1c1cc(C#N)c2c(c1)CC(=O)N2 (centres unmarked) [compound 53, 5-(4-methyl-6-oxo-1,4,5,6-tetrahydropyridazin-3-yl)-2-oxoindoline-7-carbonitrile] | 32.7 nM
COC1CN(c2nc3ccc(C4=NNC(=O)CC4C)cc3s2)C1 (centres unmarked) [compound 49, 6-(2-(3-methoxyazetidin-1-yl)benzo[d]thiazol-6-yl)-5-methyl-4,5-dihydropyridazin-3 (2H)-one] | 48.6 nM
CC1CC(=O)NN=C1c1cc(F)c2c(c1)C1(CCC1)C(=O)N2 (centres unmarked) [Example #43, 7′-fluoro-5′-(4-methyl-6-oxo-1,4,5,6-tetrahydropyridazin-3-yl)spiro[cyclobutane-1,3′-indolin]-2′-one] | 35.5 nM
CC1CC(=O)NN=C1c1cc2c(c(-c3nccs3)c1)NC(=O)CCC2 (centres unmarked) [compound 20, 7-(4-methyl-6-oxo-1,4,5,6-tetrahydropyridazin-3-yl)-9-(thiazol-2-yl)-1,3,4,5-tetrahydro-2H-benzo[b]azepin-2-one] | 32.4 nM
CC1CC(=O)NN=C1c1cc(Br)c2c(c1)C(C)(C)CC(=O)N2 (centres unmarked) [compound 11, 8-bromo-4,4-dimethyl-6-(4-methyl-6-oxo-1,4,5,6-tetrahydropyridazin-3-yl)-3,4-dihydroquinolin-2 (1H)-one] | 51.3 nM
C[C@H]1SC(=O)NN=C1c1cc(Cl)c2c(c1)C(C)(C)CC(=O)N2 [Example #67, (6R)-5-(8-chloro-4,4-dimethyl-2-oxo-1,2,3,4-tetrahydroquinolin-6-yl)-6-methyl-3,6-dihydro-2H-1,3,4-thiadiazin-2-one] | 48.3 nM
CC1CC(=O)NN=C1c1cc2c(c(-c3nccs3)c1)NC(=O)CC2 (centres unmarked) [Example #2, 6-(4-methyl-6-oxo-1,4,5,6-tetrahydropyridazin-3-yl)-8-(thiazol-2-yl)-3,4-dihydroquinolin-2 (1H)-one] | 23.5 nM
CC1SC(=O)NN=C1c1cc(Cl)c2c(c1)CS(=O)(=O)N2 (centres unmarked) [compound 82, 5-(7-chloro-2,2-dioxido-1,3-dihydrobenzo[c]isothiazol-5-yl)-6-methyl-3,6-dihydro-2H-1,3,4-thiadiazin-2-one] | 26.4 nM
COc1ncc(-c2cc(C3=NNC(=O)CC3C)cc3c2NC(=O)CC3)s1 (centres unmarked) [Example #4, 8-(2-methoxythiazol-5-yl)-6-(4-methyl-6-oxo-1,4,5,6-tetrahydropyridazin-3-yl)-3,4-dihydroquinolin-2 (1H)-one] | 24.8 nM
CC1SC(=O)NN=C1c1cc(Cl)c2c(c1)C(C)(C)NC2=O (centres unmarked) [Example #80, 5-(7-chloro-3,3-dimethyl-1-oxoisoindolin-5-yl)-6-methyl-3,6-dihydro-2H-1,3,4-thiadiazin-2-one] | 20.6 nM
CC1(C)C(=O)Nc2c(Cl)cc(C3=NNC(=O)CC3)cc21 [Example #44, 7-chloro-3,3-dimethyl-5-(6-oxo-1,4,5,6-tetrahydropyridazin-3-yl)indolin-2-one] | 94 nM
O=c1[nH]nc(-c2cc(Cl)c3[nH]c(=O)sc3c2)s1 [compound 88, 4-chloro-6-(5-oxo-4,5-dihydro-1,3,4-thiadiazol-2-yl)benzo[d]thiazol-2 (3H)-one] | 29.2 nM
COc1ccc(-c2cc(C3=NNC(=O)CC3C)cc3c2NC(=O)CCC3)cn1 (centres unmarked) [Example #18, 9-(6-methoxypyridin-3-yl)-7-(4-methyl-6-oxo-1,4,5,6-tetrahydropyridazin-3-yl)-1,3,4,5-tetrahydro-2H-benzo[b]azepin-2-one] | 42.1 nM
CC1(C)C(=O)Nc2c(F)cc(-c3ccc(=O)[nH]n3)cc21 [Example #27, 7-fluoro-3,3-dimethyl-5-(6-oxo-1,6-dihydropyridazin-3-yl)indolin-2-one] | 38.3 nM
O=C1Cc2cc(-c3ccc(=O)[nH]n3)cc(-c3ccc(Cl)cc3)c2N1 [Example #7, 7-(4-chlorophenyl)-5-(6-oxo-1,6-dihydropyridazin-3-yl)indolin-2-one] | 40.6 nM

Second part, the molecule after the results:

IC50 | SMILES
16.2 nM | CC1CC(=O)NN=C1c1cc(Cl)c2[nH]c(=O)n(C)c2c1 (centres unmarked) [Example #42, 4-chloro-1-methyl-6-(4-methyl-6-oxo-1,4,5,6-tetrahydropyridazin-3-yl)-1,3-dihydro-2H-benzo[d]imidazol-2-one]
7.4 nM | CC1CC(=O)NN=C1c1cc(C#N)c2nc(N)sc2c1 (centres unmarked) [Example #38, 2-amino-6-(4-methyl-6-oxo-1,4,5,6-tetrahydropyridazin-3-yl)benzo[d]thiazole-4-carbonitrile]
4.9 nM | CC1CC(=O)NN=C1c1ccc2nc(Nc3ccc(S(C)(=O)=O)cc3)n(C)c2c1 (centres unmarked) [Example #5, 5-methyl-6-(1-methyl-2-((4-(methylsulfonyl)phenyl)amino)-1H-benzo[d]imidazol-6-yl)-4,5-dihydropyridazin-3 (2H)-one]
17.6 nM | Cc1cc(C2=NNC(=O)CC2)cc2sc(=O)[nH]c12 [compound 15, 4-methyl-6-(6-oxo-1,4,5,6-tetrahydropyridazin-3-yl)benzo[d]thiazol-2 (3H)-one]
3.2 nM | CC1SC(=O)NN=C1c1cc(Cl)c2nc(O)ccc2c1 (centres unmarked) [compound 81, 5-(8-chloro-2-hydroxyquinolin-6-yl)-6-methyl-3,6-dihydro-2H-1,3,4-thiadiazin-2-one]
3.2 nM | CC1CC(=O)NN=C1c1cc(Cl)c2[nH]c(=O)sc2c1 (centres unmarked) [compound 29, 4-chloro-6-(4-methyl-6-oxo-1,4,5,6-tetrahydropyridazin-3-yl)benzo[d]thiazol-2 (3H)-one]
3.2 nM | C[C@@H]1CC(=O)NN=C1c1cc(Cl)c2c(c1)C(C)(C)C(=O)N2 [Example #33, (R)-7-chloro-3,3-dimethyl-5-(4-methyl-6-oxo-1,4,5,6-tetrahydropyridazin-3-yl)indolin-2-one]
3.2 nM | CC1CC(=O)NN=C1c1cc(Br)c2nc(O)ccc2c1 (centres unmarked) [compound 45, 6-(8-bromo-2-hydroxyquinolin-6-yl)-5-methyl-4,5-dihydropyridazin-3 (2H)-one]
3.2 nM | CC1CC(=O)NN=C1c1cc(Cl)c2[nH]c(=O)ccc2c1 (centres unmarked) [Example #35, 8-chloro-6-(4-methyl-6-oxo-1,4,5,6-tetrahydropyridazin-3-yl)quinolin-2 (1H)-one]
4 nM | CC1CC(=O)NN=C1c1cc(Cl)c2nc(N)sc2c1 (centres unmarked) [Example #30, 6-(2-amino-4-chlorobenzo[d]thiazol-6-yl)-5-methyl-4,5-dihydropyridazin-3 (2H)-one]
12 nM | CC1CC(=O)NN=C1c1cc(C#N)c2[nH]c(=O)ccc2c1 (centres unmarked) [Example #40, 6-(4-methyl-6-oxo-1,4,5,6-tetrahydropyridazin-3-yl)-2-oxo-1,2-dihydroquinoline-8-carbonitrile]
7.4 nM | C[C@@H]1CC(=O)NN=C1c1cc(F)c2c(c1)CC(=O)N2 [compound 54, (R)-7-fluoro-5-(4-methyl-6-oxo-1,4,5,6-tetrahydropyridazin-3-yl)indolin-2-one]
6.1 nM | CC1CC(=O)NN=C1c1cc(F)c2nc(N3CC(O)C3)sc2c1 (centres unmarked) [Example #37, 6-(4-fluoro-2-(3-hydroxyazetidin-1-yl)benzo[d]thiazol-6-yl)-5-methyl-4,5-dihydropyridazin-3 (2H)-one]
5 nM | CC1CC(=O)NN=C1c1ccc2nc(Nc3ccc(S(C)(=O)=O)cc3)n(C3CC3)c2c1 (centres unmarked) [compound 16, 6-(1-cyclopropyl-2-((4-(methylsulfonyl)phenyl)amino)-1H-benzo[d]imidazol-6-yl)-5-methyl-4,5-dihydropyridazin-3 (2H)-one]
3.2 nM | CC1SC(=O)NN=C1c1cc(Cl)c2c(c1)CCCC(=O)N2 (centres unmarked) [compound 64, 5-(9-chloro-2-oxo-2,3,4,5-tetrahydro-1H-benzo[b]azepin-7-yl)-6-methyl-3,6-dihydro-2H-1,3,4-thiadiazin-2-one]
4 nM | Cc1n[nH]c2c(Cl)cc(C3=NNC(=O)CC3C)cc12 (centres unmarked) [Example #47, 6-(7-chloro-3-methyl-1H-indazol-5-yl)-5-methyl-4,5-dihydropyridazin-3 (2H)-one]
3.6 nM | CC1CC(=O)NN=C1c1cc2c(c(Cl)c1F)NC(=O)C2(C)C (centres unmarked) [Example #36, 7-chloro-6-fluoro-3,3-dimethyl-5-(4-methyl-6-oxo-1,4,5,6-tetrahydropyridazin-3-yl)indolin-2-one]
3.4 nM | CC1CC(=O)NN=C1c1cc(F)c2nc(NCc3cnn(C)c3)sc2c1 (centres unmarked) [Example #46, 6-(4-fluoro-2-(((1-methyl-1H-pyrazol-4-yl)methyl)amino)benzo[d]thiazol-6-yl)-5-methyl-4,5-dihydropyridazin-3 (2H)-one]
10.5 nM | CC1CC(=O)NN=C1c1cc(Cl)c2c(c1)CNC2=O (centres unmarked) [Example #39, 7-chloro-5-(4-methyl-6-oxo-1,4,5,6-tetrahydropyridazin-3-yl)isoindolin-1-one]
3.2 nM | Cc1cc(C2=NNC(=O)SC2C)cc2c1NC(=O)CC2 (centres unmarked) [compound 83, 6-methyl-5-(8-methyl-2-oxo-1,2,3,4-tetrahydroquinolin-6-yl)-3,6-dihydro-2H-1,3,4-thiadiazin-2-one]
3.2 nM | CC1CC(=O)NN=C1c1cc(Br)c2c(c1)CCC(=O)N2 (centres unmarked) [Example #3, 8-bromo-6-(4-methyl-6-oxo-1,4,5,6-tetrahydropyridazin-3-yl)-3,4-dihydroquinolin-2 (1H)-one]
20.3 nM | CC1SC(=O)NN=C1c1cc(Cl)c2c(c1)CNC2=O (centres unmarked) [Example #79, 5-(7-chloro-1-oxoisoindolin-5-yl)-6-methyl-3,6-dihydro-2H-1,3,4-thiadiazin-2-one]
